Assay results: patent publication US5968801A, “Polyhydroxyalkanoate depolymerase and process for producing the same” (Taisei Corporation, priority 1997, dated 1999)

Molecular target: PHA depolymerase
Format: biochemical, Corynebacterium aquaticum IM-1
Conditions: pH 6.5; read-out: IC50 (concentration of inhibitor at which the enzyme activity was inhibited by 50%)

O[C@H](CS)[C@H](O)CS (racemic) [DTT, dithiothreitol]
IC50: 73 mM

O=S(=O)(F)Cc1ccccc1 [PMSF, Phenylmethylsulfonyl fluoride]
IC50: 1.92 mM
